Molecules are shown by their SMILES. Counter-ions that a name gives are not always drawn.

These results are taken from patent US5013554A, “Oral pharmaceutical compositions containing dextrophan salts” (Prodotti Formenti s.r.l., priority 1988, dated 1991).

Series [1] can be described thus: pharmacokinetic study on guinea pigs under urethane anaesthesia, oral administration of dextrorphan citrate and tartrate; plasma dextrorphan by HPLC after β-glucuronidase hydrolysis. It counts as in vivo. On the procedure:
The results from a pharmacokinetic study effected on guinea pigs under urethane anesthaesia, to which dextrorphan citrate and tartrate had been administered by the oral route, are reported hereinbelow in order to show the good bioavailability of dextrorphan salts.
Dextrorphan dosages were measured by a high pressure liquid chromatography method.
The plasma samples were subjected, before the extraction, to enzymatic hydrolysis with β-glucuronidase, according to the method reported by T.EAST and D.DYE (Journal of Chromatography Biomedical Applications 388, 99-112, 1985).
After hydrolysis, plasma samples were alkalinized with sodium carbonate and extracted with benzene; benzene was re-extracted with 0.5 ml of 0.1 NHCl and 100 mcl were chromatographed under the following conditions:
COLUMN: Lichrosorb RP Select B Merck 5 λ, 25 cm ×4 mm inn. d.
MOBILE PHASE: Octanesulphonic acid sodium salt 0.01M solution in water. Acetonitrile mixture (68-32% ). The solution was then buffered to pH 3 with phosphoric acid.
DETECTOR: F 1000 MERCK HITACHI Fluorimeter exc.=280 nm; em.=310 nm

The conditions of series [2]: background; cited from earlier work.
For series [3] the following is noted: background; cited from earlier work. This is another data set of the same source.
The next series deals with opiaceous receptors. The note with it: background; cited from earlier work.
For series [4] the following is noted: background; compared with dextromethorphan; cited from earlier work.
For series [5] the following is noted: previously reported; cited from earlier work.

Take `CN1CC[C@@]23CCCC[C@@H]2[C@@H]1Cc1ccc(O)cc13` [Dextrorphan citrate]: the oral absorption entry in series [1] (in words) is “effectively absorbed”.

As to `CN1CC[C@@]23CCCC[C@@H]2[C@@H]1Cc1ccc(O)cc13` [Dextrorphan], the concentration at 0.25 h in series [1] (guinea pig, plasma, po, Table 2 (dextrorphan tartrate by order of b16), 15 minutes, read-out: Dextrorphan hematic levels) is 10 ng/mL. The concentration at 0.5 h in series [1] (guinea pig, plasma, po, Table 2 (dextrorphan tartrate by order of b16), 30 minutes, read-out: Dextrorphan hematic levels) was determined as 470 ng/mL. The concentration at 1 h in series [1] (guinea pig, plasma, po, Table 2 (dextrorphan tartrate by order of b16), 60 minutes, read-out: Dextrorphan hematic levels) worked out at 2500 ng/mL. Moreover, the concentration at 2 h in series [1] (guinea pig, plasma, po, Table 2 (dextrorphan tartrate by order of b16), 120 minutes, read-out: Dextrorphan hematic levels) was 3800 ng/mL. The concentration at 3 h in series [1] (guinea pig, plasma, po, Table 2 (dextrorphan tartrate by order of b16), 180 minutes, read-out: Dextrorphan hematic levels) came to 3000 ng/mL. Besides, the concentration at 5 h in series [1] (guinea pig, plasma, po, Table 2 (dextrorphan tartrate by order of b16), 300 minutes, read-out: Dextrorphan hematic levels) came to 3800 ng/mL. In addition, the antitussive action result in series [2] is “remarkable antitussive action”. Further, in series [3], the analgesic activity entry was “lack of analgesic activity”. In the series with opiaceous receptors, the “affinity to the opiaceous receptors” value was “lack of analgesic activity and of affinity to the opiaceous receptors”. The toxicity result in series [4] is recorded as “very low toxicity, even lower than that of dextromethorphan”. The “use by the oral route” value in series [5] was “not to be conveniently used by the oral route”.
